The results in this text go back to patent US20130030001A1 (priority 2008, published 2013).

For orientation: IC50 means the concentration at which inhibition is half-maximal. Read a high IC50 as a need for much substance.

The experiment deals with T1, human muscarinic acetylcholine M3 receptor (Homo sapiens, UniProt P20309).
T1 construct: expressed in transfected cells; host or cells: CHO-K1 (Chinese Hamster Ovary) cell membranes
T1 sequence (P20309 whole entry): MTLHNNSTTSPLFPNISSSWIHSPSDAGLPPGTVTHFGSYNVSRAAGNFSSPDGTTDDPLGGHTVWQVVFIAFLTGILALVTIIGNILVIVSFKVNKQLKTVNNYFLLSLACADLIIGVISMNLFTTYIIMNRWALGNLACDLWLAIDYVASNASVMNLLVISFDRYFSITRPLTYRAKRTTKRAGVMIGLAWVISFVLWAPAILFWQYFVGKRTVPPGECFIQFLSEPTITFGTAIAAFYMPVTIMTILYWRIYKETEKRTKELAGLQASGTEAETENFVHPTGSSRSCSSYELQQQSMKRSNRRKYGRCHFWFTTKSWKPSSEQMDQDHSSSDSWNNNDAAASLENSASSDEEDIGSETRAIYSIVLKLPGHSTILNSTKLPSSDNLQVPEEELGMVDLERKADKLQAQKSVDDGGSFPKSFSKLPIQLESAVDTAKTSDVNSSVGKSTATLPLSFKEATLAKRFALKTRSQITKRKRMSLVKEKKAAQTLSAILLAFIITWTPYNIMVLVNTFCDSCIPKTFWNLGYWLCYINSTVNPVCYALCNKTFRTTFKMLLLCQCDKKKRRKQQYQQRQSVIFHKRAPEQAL
Kind of experiment: biochemical. It is filed as binding. To be noted: M3 binding IC50.
Compound `N#Cc1ccc(OCCC[N+]23CCC(CC2)[C@@H](OC(=O)C2(c4ccccc4)CCCCCC2)C3)cc1` [Example 40, (R)-1-[3-(4-Cyano-phenoxy)-propyl]-3-(1-phenyl-cycloheptanecarbonyloxy)-1-azonia-bicyclo[2.2.2]octane bromide] yielded an IC50 of under 2 nM.

`O=C(C[N+]12CCC(CC1)[C@@H](OC(=O)C1(c3ccccc3)CCCCCC1)C2)Nc1cc(F)ccc1F` [Example 41, (R)-1-[(2,5-Difluoro-phenylcarbamoyl)-methyl]-3-(1-phenyl-cycloheptanecarbonyloxy)-1-azonia-bicyclo[2.2.2]octane bromide] gave an IC50 of 2 to 10 nM.

Consider `N#Cc1ccc(COCC[N+]23CCC(CC2)[C@@H](OC(=O)C2(c4ccccc4)CCCCCC2)C3)cc1` [Example 42, (R)-1-[2-(4-Cyano-benzyloxy)-ethyl]-3-(1-phenyl-cycloheptanecarbonyloxy)-1-azonia-bicyclo[2.2.2]octane bromide], for which the IC50 was in the range of 2 to 10 nM.

For `O=C(C[N+]12CCC(CC1)[C@@H](OC(=O)C1(c3ccccc3)CCCCCC1)C2)Nc1cccc(C(F)(F)F)n1` [Example 43, (R)-3-(1-Phenyl-cycloheptanecarbonyloxy)-1-[(6-trifluoromethyl-pyridin-2-ylcarbamoyl)-methyl]-1-azonia-bicyclo[2.2.2]octane chloride], the IC50 was 2 to 10 nM.

With `Cc1ccnc(NC(=O)C[N+]23CCC(CC2)[C@@H](OC(=O)C2(c4ccccc4)CCCCCC2)C3)c1` [Example 44, (R)-1-[(4-Methyl-pyridin-2-ylcarbamoyl)-methyl]-3-(1-phenyl-cycloheptanecarbonyloxy)-1-azonia-bicyclo[2.2.2]octane chloride], the IC50 was in the range of 2 to 10 nM.

For the compound `O=C(C[N+]12CCC(CC1)[C@@H](OC(=O)C1(c3ccccc3)CCCCCC1)C2)Nc1ccc(Cl)cn1` [Example 45, (R)-1-[(5-Chloro-pyridin-2-ylcarbamoyl)-methyl]-3-(1-phenyl-cycloheptanecarbonyloxy)-1-azonia-bicyclo[2.2.2]octane chloride], the IC50 was under 2 nM.

`Cc1ccc(NC(=O)C[N+]23CCC(CC2)[C@@H](OC(=O)C2(c4ccccc4)CCCCCC2)C3)cc1` [Example 46, (R)-3-(1-Phenyl-cycloheptanecarbonyloxy)-1-(p-tolylcarbamoyl-methyl)-1-azonia-bicyclo[2.2.2]octane bromide] came in with an IC50 of 2 to 10 nM.

The compound `Cc1cccc(NC(=O)C[N+]23CCC(CC2)[C@@H](OC(=O)C2(c4ccccc4)CCCCCC2)C3)c1` [Example 47, (R)-3-(1-Phenyl-cycloheptanecarbonyloxy)-1-(m-tolylcarbamoyl-methyl)-1-azonia-bicyclo[2.2.2]octane bromide] displayed an IC50 of 2 to 10 nM.

The compound `O=C(C[N+]12CCC(CC1)[C@@H](OC(=O)C1(c3ccccc3)CCCCCC1)C2)Nc1ncco1` [Example 48, (R)-1-(Oxazol-2-ylcarbamoylmethyl)-3-(1-phenyl-cycloheptanecarbonyloxy)-1-azonia-bicyclo[2.2.2]octane bromide] yielded an IC50 of 2 to 10 nM.

Consider `Cc1ccc(NC(=O)C[N+]23CCC(CC2)[C@@H](OC(=O)C2(c4ccccc4)CCCCCC2)C3)nn1` [Example 49, (R)-1-[(6-Methyl-pyridazin-3-ylcarbamoyl)-methyl]-3-(1-phenyl-cycloheptanecarbonyloxy)-1-azonia-bicyclo[2.2.2]octane bromide], for which the IC50 is under 2 nM.

`O=C(C[N+]12CCC(CC1)[C@@H](OC(=O)C1(c3ccccc3)CCCCCC1)C2)Nc1ncccn1` [Example 50, (R)-3-(1-Phenyl-cycloheptanecarbonyloxy)-1-(pyrimidin-2-ylcarbamoylmethyl)-1-azonia-bicyclo[2.2.2]octane chloride] displayed an IC50 of under 2 nM.

With `N#Cc1ccc(NC(=O)C[N+]23CCC(CC2)[C@@H](OC(=O)C2(c4ccccc4)CCCCCC2)C3)nc1` [Example 51, (R)-1-[(5-Cyano-pyridin-2-ylcarbamoyl)-methyl]-3-(1-phenyl-cycloheptanecarbonyloxy)-1-azonia-bicyclo[2.2.2]octane chloride], the IC50 is 2 to 10 nM.
